Entries after “also recorded” stand apart in the source; their conditions may differ.
Columns and labels:
Assay type in all cases: in vivo, mouse (Balb/c nu/nu)
[1] = system: hypoxic region of EMT6 tumor (pimonidazole-positive area); assay: Correlation between autoradiographic signal intensity (PSL value) and pimonidazole-positive area (Example 13); conditions: tumor tissue sections after PET imaging
Experimental: In order to evaluate whether or not the compound related to the present invention can quantitatively visualize a hypoxic region of a tumor, the following experiment was carried out using compounds 1 to 3 and [^18F]FMISO.
Using a microscope system (model: BZ-9000, Keyence Corporation) a high magnification image of a pimonidazole-positive site was acquired using the entire image of a pathology image obtained by immunohistochemical staining in the Example 12 and a 10× objective lens. The high magnification image was formed with respect to a randomly selected image region. At the same time the image acquisition site was recorded as a navigation image by use of the navigation function of the microscope system. The acquired high magnification image was subjected to image processing, and a pimonidazole-positive area present in the high magnification image was determined.
The autoradiographic image and the stained image of each labeled compound used were those acquired in the Example 12. The resolution of the navigation image was made to match the resolution of the autoradiographic image, and the geometrical positions of two images were aligned using image analysis software.
In the autoradiographic image, an ROI was set for the site that coincided with the high magnification image acquisition site, and the PSL value (Photo-Stimulated Luminescence value) of the ROI was determined. Furthermore, an ROI was set for a site of the same image that contained no sample, and the PSL value thereof was defined as the background. The PSL value of the background was subtracted from the PSL value of the high magnification image acquisition site to obtain the net PSL value. The hypoxic marker pimonidazole-positive area was plotted on the abscissa and the PSL value in the autoradiographic image on the ordinate, and the correlation factor was determined. This series of operations was carried out for each of the labeled compounds.

[2] = system: EMT6 tumor-bearing model mice; assay: Biodistribution in tumor and organs of tumor-bearing mouse (Example 14); conditions: for Blood / Gall bladder / Heart / Kidney / Large intestine / Liver / Lung / Muscle / Small intestine / Stomach / T/B (tumor/blood ratio) / T/M (tumor/muscle ratio) / Tumor / Urine: mean; for Blood clearance and urinary excretion: compared with [^18F]FMISO, 60 and 120 minutes after administration
Experimental: The biodistribution of compounds 1 to 3 and [^18F]FMISO in a tumor and each of the organs of a tumor-bearing mouse was measured.
Tumor-bearing model mice used in this experiment were the same as those prepared in Example 10, and 3 or 4 cases that had attained a tumor volume of 200 to 400 mm^3 were selected from each group. The tumor-bearing model mouse was placed under isoflurane anesthesia, pimonidazole that is a hypoxic marker, was administered via a tail vein, and at 10 minutes thereafter, the respective labeled compound was administered. The tumor-bearing model mouse was sacrificed at 60 minutes and 120 minutes after administration. All of the tumor-bearing model mice were sacrificed by blood-letting from the abdominal aorta or by cardiocentesis, and dissection was carried out immediately thereafter. Other than the tumor, the blood, heart, lung, stomach, liver, gallbladder, kidney, small intestine and large intestine, muscle, and urine were sampled, and the other tissues were defined as the remaining whole body. After the weight of each tissue sampled was measured, the amount of radioactivity of the tissue was measured using a gamma counter, and the biodistribution of each of the labeled compounds was compared by converting it into % ID/g (% injection dose/g organ) of each tissue.
In order to examine a hypoxic state within the tumor, immunohistochemical staining of the sample tumor was carried out so as to ascertain whether or not the interior of the tumor was hypoxic. The sampled tumor was fixed using a 20% formalin buffer, and a paraffin block was prepared using an automatic paraffin-embedding apparatus (model: VIP-5-Jr-J0, Sakura Finetek). A slice (thickness: 3 μm) was prepared by means of a microtome (model: Tissue-Tek Feather Trustome, Sakura Finetek). Immunohistochemical staining was carried out by the same method as in Example 12.

[3] = system: mouse-derived breast cancer cell line (EMT6) tumor-bearing model mice; assay: PET imaging of tumor-bearing model mice (incorporation into tumor cells, Example 10); conditions: 60 minutes after administration; for Physiological accumulation in the liver compared with [^18F]FMISO: coronal tomographic PET image; for Excretion route: from coronal tomographic PET image
Experimental: Accumulation of compound 1, compound 2, and compound 3 in tumor cells in vivo was studied as follows using a mouse-derived breast cancer cell line (EMT6).
Preparation of tumor-bearing model mice: the animals used were six-week-old female Balb/c nu/nu mice (obtained from Japan SLC). Using these animals, a Matrigel suspension (cell count 2.5×10^6 cells/0.05 mL) of EMT6, which is a mouse-derived breast cancer cell line (obtained from ATCC), was subcutaneously implanted in a site from the right rib to the right shoulder. It was confirmed on the third day after implantation that the tumor cells were fixed, and the tumor volume attained 200 to 400 mm^3 9 to 11 days after implantation.

[4] = 60 minutes after administration
[5] = 120 minutes after administration

| SMILES | Correlation coefficient (pimonidazole-positive area vs PSL value in autoradiographic image) [1] | Blood [2, 4] [% ID/g] | Gall bladder [2, 4] [% ID/g] | Heart [2, 4] [% ID/g] | Kidney [2, 4] [% ID/g] | Large intestine [2, 4] [% ID/g] | Liver [2, 4] [% ID/g] | Lung [2, 4] [% ID/g] | Muscle [2, 4] [% ID/g] | Small intestine [2, 4] [% ID/g] | Stomach [2, 4] [% ID/g] | T/B (tumor/blood ratio) [2, 4] | T/M (tumor/muscle ratio) [2, 4] | Tumor [2, 4] [% ID/g] | Urine [2, 4] [% ID] | Blood [2, 5] [% ID/g] | Gall bladder [2, 5] [% ID/g] | Heart [2, 5] [% ID/g] | Kidney [2, 5] [% ID/g] | Large intestine [2, 5] [% ID/g] | also measured |
| --- | --- | --- | --- | --- | --- | --- | --- | --- | --- | --- | --- | --- | --- | --- | --- | --- | --- | --- | --- | --- | --- |
| O=[N+]([O-])c1nccn1CCC(CO)(CO)C[18F] [Compound 3, 1-(3,3-Dihydroxymethyl-4-[^18F]fluorobutyl)-2-nitroimidazole] | 0.61 | 2.81 | 16.71 | 3.46 | 9.95 | 5.40 | 4.46 | 2.92 | 2.66 | 4.68 | 1.99 | 0.86 | 0.87 | 2.05 | 45.80 | 1.14 | 15.45 | 1.82 | 9.20 | 6.89 | Liver [2, 5]: 2.13 % ID/g; Lung [2, 5]: 1.38 % ID/g; Muscle [2, 5]: 1.44 % ID/g; Small intestine [2, 5]: 3.66 % ID/g; Stomach [2, 5]: 1.26 % ID/g; T/B (tumor/blood ratio) [2, 5]: 2.11; T/M (tumor/muscle ratio) [2, 5]: 1.62; Tumor [2, 5]: 1.93 % ID/g; Urine [2, 5]: 68.78 % ID; Blood clearance and urinary excretion [2]: rapid blood clearance and urinary excretion compared with [^18F]FMISO; Sites of accumulation on coronal tomographic image [3]: intense accumulation of compound 2 and compound 3 was found in the bladder and accumulation thereof was found in the intestinal tract; also recorded: accumulation of compound 3 in the gallbladder; Tumor-specific accumulation on axial tomographic image [3]: tumor-specific accumulation; Physiological accumulation in the liver compared with [^18F]FMISO [3]: low physiological accumulation in the liver; Excretion route [3]: excreted via the kidney and urinary tract system and the hepatobiliary system |
| O=[N+]([O-])c1nccn1CC(CO)(CO)C[18F] [Compound 1, 1-(2,2-Dihydroxymethyl-3-[^18F]fluoropropyl)-2-nitroimidazole] | 0.85 | 1.70 | 26.34 | 2.35 | 4.23 | 3.71 | 3.34 | 1.96 | 1.71 | 3.72 | 1.53 | 1.42 | 1.39 | 2.38 | 62.13 | 0.75 | 8.21 | 1.90 | 2.91 | 2.37 | Liver [2, 5]: 4.31 % ID/g; Lung [2, 5]: 0.89 % ID/g; Muscle [2, 5]: 0.84 % ID/g; Small intestine [2, 5]: 2.78 % ID/g; Stomach [2, 5]: 0.88 % ID/g; T/B (tumor/blood ratio) [2, 5]: 2.47; T/M (tumor/muscle ratio) [2, 5]: 2.03; Tumor [2, 5]: 1.65 % ID/g; Urine [2, 5]: 77.76 % ID; Blood clearance and urinary excretion [2]: rapid blood clearance and urinary excretion compared with [^18F]FMISO; Sites of accumulation on coronal tomographic image [3]: intense accumulation of compound 1 in the bladder, and accumulation thereof in the gallbladder and the intestinal tract; Tumor-specific accumulation on axial tomographic image [3]: tumor-specific accumulation separated from normal tissue such as muscle; Physiological accumulation in the liver compared with [^18F]FMISO [3]: low physiological accumulation in the liver; Excretion route [3]: excreted via the kidney and urinary tract excretion and hepatobiliary excretion systems |
| O=[N+]([O-])c1nc(CO)cn1CC(CO)(CO)C[18F] [Compound 2, 1-(2,2-Dihydroxymethyl-3-[^18F]fluoropropyl)-4-hydroxymethyl-2-nitroimidazole] | 0.80 | 0.60 | 7.54 | 1.32 | 1.86 | 0.96 | 1.14 | 0.89 | 1.25 | 2.35 | 0.48 | 2.11 | 0.91 | 1.13 | 80.42 | 0.25 | 7.33 | 0.74 | 0.82 | 0.88 | Liver [2, 5]: 0.54 % ID/g; Lung [2, 5]: 0.34 % ID/g; Muscle [2, 5]: 0.47 % ID/g; Small intestine [2, 5]: 1.63 % ID/g; Stomach [2, 5]: 0.25 % ID/g; T/B (tumor/blood ratio) [2, 5]: 3.18; T/M (tumor/muscle ratio) [2, 5]: 1.68; Tumor [2, 5]: 0.78 % ID/g; Urine [2, 5]: 90.92 % ID; Blood clearance and urinary excretion [2]: even more rapid; Sites of accumulation on coronal tomographic image [3]: intense accumulation of compound 2 and compound 3 was found in the bladder and accumulation thereof was found in the intestinal tract; Tumor-specific accumulation on axial tomographic image [3]: tumor-specific accumulation; Physiological accumulation in the liver compared with [^18F]FMISO [3]: low physiological accumulation in the liver; Excretion route [3]: excreted mainly via the kidney and urinary tract system |
